Results reported in ChEMBL document CHEMBL1201862, “PubChem BioAssay data set” (2004).
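Dose response: 5 concentrations. Exposure: 48 h. Format: 96-well plates. Endpoint: linear interpolation; highest concentration if not reached. Abbreviation: GI50, concentration required for 50% inhibition of growth.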 The source made the active and inactive calls. No stated cut-off is given here; in the data, active = GI50 up to about 1.1 µM and inactive = higher.

How the values were obtained:
Experiment in all cases: NCI tumour cell line growth inhibition, 48 h
786-0 = system: 786-0
A549 = system: A549
ACHN = system: ACHN
CAKI-1 = system: CAKI-1
COLO 205 = system: COLO 205
HL-60 = system: HL-60
LOX IMVI = system: LOX IMVI
M14 = system: M14
NCI-H460 = system: NCI-H460
OVCAR-8 = system: OVCAR-8
SK-MEL-28 = system: SK-MEL-28
SN12C = system: SN12C
SNB-19 = system: SNB-19
UACC-257 = system: UACC-257
SF-539 = system: SF-539

SMILES | GI50 (786-0) | GI50 (A549) | GI50 (ACHN) | GI50 (CAKI-1) | GI50 (COLO 205) | GI50 (HL-60) | GI50 (LOX IMVI) | GI50 (M14) | GI50 (NCI-H460) | GI50 (OVCAR-8) | GI50 (SK-MEL-28) | GI50 (SN12C) | GI50 (SNB-19) | GI50 (UACC-257) | GI50 (SF-539)
COc1cccc(C(=O)O)c1Cc1cccc2ccccc12 | > 100 µM (inactive) | > 100 µM (inactive) | > 100 µM (inactive) | > 100 µM (inactive) | > 100 µM (inactive) | > 100 µM (inactive) | > 100 µM (inactive) | > 100 µM (inactive) | > 100 µM (inactive) | 99.8 µM (inactive) | > 100 µM (inactive) | > 100 µM (inactive) | > 100 µM (inactive) | > 100 µM (inactive) | –
CO[C@H](C(=O)O[C@H]1C(=O)N2CC[C@@H]3CCC[C@H]1C32C)c1ccccc1 (some centres undefined) | > 100 µM (inactive) | > 100 µM (inactive) | > 100 µM (inactive) | > 100 µM (inactive) | > 100 µM (inactive) | > 100 µM (inactive) | > 100 µM (inactive) | > 100 µM (inactive) | > 100 µM (inactive) | > 100 µM (inactive) | > 100 µM (inactive) | > 100 µM (inactive) | > 100 µM (inactive) | > 100 µM (inactive) | > 100 µM (inactive)
Nc1cccc2c1C(=O)c1cccc(N)c1C2=O | > 100 µM (inactive) | > 100 µM (inactive) | > 100 µM (inactive) | > 100 µM (inactive) | > 100 µM (inactive) | – | > 100 µM (inactive) | > 100 µM (inactive) | > 100 µM (inactive) | > 100 µM (inactive) | > 100 µM (inactive) | > 100 µM (inactive) | > 100 µM (inactive) | > 100 µM (inactive) | > 100 µM (inactive)
CN(C)CCNC(=O)c1cccc2ccc(-c3ccncc3)nc12 | 2.72 µM (inactive) | 0.817 µM (active) | 1.17 µM (inactive) | 1.52 µM (inactive) | 1.3 µM (inactive) | 0.877 µM (active) | 1.39 µM (inactive) | 4.11 µM (inactive) | 0.403 µM (active) | 2.26 µM (inactive) | 4.86 µM (inactive) | 1.61 µM (inactive) | 2.81 µM (inactive) | 2.06 µM (inactive) | 1.45 µM (inactive)
O=C(/C=C/c1ccc[nH]1)c1ccccc1 | > 100 µM (inactive) | > 100 µM (inactive) | > 100 µM (inactive) | > 100 µM (inactive) | > 100 µM (inactive) | 41.2 µM (inactive) | > 100 µM (inactive) | > 100 µM (inactive) | > 100 µM (inactive) | > 100 µM (inactive) | > 100 µM (inactive) | > 100 µM (inactive) | > 100 µM (inactive) | > 100 µM (inactive) | > 100 µM (inactive)
O=c1c2cc(Br)ccc2n(C2OC(CO)C(O)C(O)C2O)c(=S)n1-c1ccccc1 (centres undefined) | 82.4 µM (inactive) | > 100 µM (inactive) | > 100 µM (inactive) | – | > 100 µM (inactive) | > 100 µM (inactive) | > 100 µM (inactive) | – | > 100 µM (inactive) | > 100 µM (inactive) | > 100 µM (inactive) | > 100 µM (inactive) | > 100 µM (inactive) | > 100 µM (inactive) | > 100 µM (inactive)
CCCc1c2c([nH]c(=O)c1C)C(=O)c1[nH]c(=O)c(C)c(CCC)c1C2=O | 25.1 µM (inactive) | 23.7 µM (inactive) | 7.48 µM (inactive) | – | 25.8 µM (inactive) | 3.65 µM (inactive) | 8.11 µM (inactive) | 1.66 µM (inactive) | 14.5 µM (inactive) | 4.47 µM (inactive) | 23.6 µM (inactive) | 3.64 µM (inactive) | 18.7 µM (inactive) | 2.84 µM (inactive) | > 100 µM (inactive)
Cc1ccc([S+](c2ccccc2)c2cc(C)ccc2C)cc1 (centres undefined) | 35.2 µM (inactive) | 7.03 µM (inactive) | 11.2 µM (inactive) | 26.7 µM (inactive) | 2.99 µM (inactive) | 1.97 µM (inactive) | 2.35 µM (inactive) | 22.2 µM (inactive) | 6.38 µM (inactive) | 4.59 µM (inactive) | – | 5.94 µM (inactive) | 4.38 µM (inactive) | 1.48 µM (inactive) | 13.7 µM (inactive)
CCOC(=O)c1cc(/C=C/C(C)=C/C(=O)OC)oc1C | > 100 µM (inactive) | > 100 µM (inactive) | > 100 µM (inactive) | > 100 µM (inactive) | > 100 µM (inactive) | > 100 µM (inactive) | > 100 µM (inactive) | > 100 µM (inactive) | > 100 µM (inactive) | > 100 µM (inactive) | > 100 µM (inactive) | – | > 100 µM (inactive) | > 100 µM (inactive) | > 100 µM (inactive)
COc1ccc2c(c1)CC1NC2Cc2ccccc21 (centres undefined) | > 100 µM (inactive) | > 100 µM (inactive) | > 100 µM (inactive) | > 100 µM (inactive) | > 100 µM (inactive) | – | – | > 100 µM (inactive) | > 100 µM (inactive) | > 100 µM (inactive) | > 100 µM (inactive) | > 10 µM (inactive) | – | > 100 µM (inactive) | > 100 µM (inactive)
Clc1ccc(C2=Nc3ccccc3SC(c3cccs3)C2)cc1 (centres undefined) | 16.3 µM (inactive) | 17.2 µM (inactive) | 15.3 µM (inactive) | 15.5 µM (inactive) | 17.4 µM (inactive) | – | 7.19 µM (inactive) | 16.4 µM (inactive) | 15 µM (inactive) | 16.2 µM (inactive) | 17.6 µM (inactive) | 15.6 µM (inactive) | 16.4 µM (inactive) | 15.7 µM (inactive) | 16.8 µM (inactive)
CCOC(=O)C1=C(Nc2cccc3ccccc23)OCC1=O | > 100 µM (inactive) | > 100 µM (inactive) | > 100 µM (inactive) | > 100 µM (inactive) | > 100 µM (inactive) | – | – | > 100 µM (inactive) | > 100 µM (inactive) | > 100 µM (inactive) | 43.5 µM (inactive) | > 100 µM (inactive) | > 100 µM (inactive) | > 100 µM (inactive) | > 100 µM (inactive)
Brc1cccc(C2SCc3nc4ccccc4n32)c1 (centres undefined) | 17.5 µM (inactive) | 32.7 µM (inactive) | 16.3 µM (inactive) | 30.2 µM (inactive) | 19.1 µM (inactive) | 7.94 µM (inactive) | 14.6 µM (inactive) | 22.5 µM (inactive) | 23.6 µM (inactive) | 22.5 µM (inactive) | 17.1 µM (inactive) | 13.8 µM (inactive) | – | – | 20.8 µM (inactive)
N=C(N)NNC(=O)CCCCCCCC(=O)NNC(=N)N | > 100 µM (inactive) | > 100 µM (inactive) | > 100 µM (inactive) | > 100 µM (inactive) | 18.3 µM (inactive) | > 100 µM (inactive) | > 100 µM (inactive) | > 100 µM (inactive) | > 100 µM (inactive) | – | > 100 µM (inactive) | > 100 µM (inactive) | > 100 µM (inactive) | > 100 µM (inactive) | > 100 µM (inactive)
